Where a name gives a salt, the structure may show the parent alone. Read-outs that look alike come from different tables or passages of the source.

Our source for the remaining activity values is paper PMC8286840, “Identifying SARS-CoV-2 antiviral compounds by screening for small molecule inhibitors of Nsp3 papain-like protease” (Biochemical Journal, 2021).

The target in assay [1] is T1, SARS-CoV-2 PLpro (nsp3 1564–1878) (Severe acute respiratory syndrome coronavirus 2, UniProt P0DTD1). The assay can be described thus: biochemical. Details: FRET-quenched peptide (Pro3) cleavage by PLpro, 10 min pre-incubation, slope over 20 min, normalised to no-compound control. As to conditions: high concentration screen, read-out: % of control remaining.
Assay [2] deals with T1, SARS-CoV-2 PLpro (nsp3 1564–1878). The assay can be described thus: biochemical. Details: FRET-quenched peptide (Pro3) cleavage by PLpro, 10 min pre-incubation, slope over 20 min, normalised to no-compound control. As to conditions: low concentration screen, read-out: % of control remaining.

Take `C[C@H]1c2cccc(O)c2C(=O)C2=C(O)[C@]3(O)C(=O)C(C(N)=O)=C(O)[C@@H](N(C)C)[C@@H]3[C@@H](O)[C@@H]21` [Doxycycline]: the remaining activity at 3.75 µM in assay [1] (Well no.=2022) turned out to be 107%. Besides, the remaining activity at 1.25 µM in assay [2] (Well no.=2022) stood at 106%.

With `CN(C)CCOC(C)(c1ccccc1)c1ccccn1` (stereo not drawn) [Doxylamine (succinate)], the remaining activity at 3.75 µM in assay [1] (Well no.=6421) amounted to 102%. The remaining activity at 1.25 µM in assay [2] (Well no.=6421) was 99.2%.

On to `CN(C)CCOC(C)(c1ccccc1)c1ccccn1` (stereo not drawn) [Doxylamine succinate], for which the remaining activity at 3.75 µM in assay [1] (Well no.=497) turned out to be 104%. Further, the remaining activity at 1.25 µM in assay [2] (Well no.=497) came out at 102%.

With `CN(C)C(=S)NN=C(c1ccccn1)c1ccccn1` [Dp44mT], the remaining activity at 3.75 µM in assay [1] (Well no.=5584) was determined as 101%. The remaining activity at 1.25 µM in assay [2] (Well no.=5584) came to 99.1%.

For `CCCCc1oc2ccc(NS(C)(=O)=O)cc2c1C(=O)c1ccc(OCCCN(CCCC)CCCC)cc1` [Dronedarone], the remaining activity at 3.75 µM in assay [1] (Well no.=8285) is 94.4%. Besides, the remaining activity at 1.25 µM in assay [2] (Well no.=8285) amounted to 100%.

Take `O=C(CCCN1CC=C(n2c(=O)[nH]c3ccccc32)CC1)c1ccc(F)cc1` [Droperidol]: the remaining activity at 3.75 µM in assay [1] (Well no.=493) came out at 106%; in assay [1] (Well no.=7382), 101%. Also, the remaining activity at 1.25 µM in assay [2] (Well no.=493) was determined as 105%; in assay [2] (Well no.=7382), 97.2%.

In the case of `C[C@]12CCC(=O)C=C1[C@@H]1C[C@@H]1[C@H]1[C@@H]3[C@@H]4C[C@@H]4[C@@]4(CCC(=O)O4)[C@@]3(C)CC[C@@H]12` [Drospirenone], the remaining activity at 3.75 µM in assay [1] (Well no.=5235) was found to be 102%. Moreover, the remaining activity at 1.25 µM in assay [2] (Well no.=5235) was found to be 99.4%.

Turning to `Cc1cc(Cl)ccc1OCCCC(=O)NO` [Droxinostat], the remaining activity at 3.75 µM in assay [1] (Well no.=5239) is 96.2%. In assay [2] (Well no.=5239), the remaining activity at 1.25 µM amounted to 101%.

With `CS(=O)(=O)c1ccc(-c2cc(Br)sc2-c2ccc(F)cc2)cc1` [DuP 697], the remaining activity at 3.75 µM in assay [1] (Well no.=499) came to 107%. Further, in assay [2] (Well no.=499), the remaining activity at 1.25 µM was found to be 105%.

As for `COc1c2c(nc3ccccc13)OC(C(C)(O)CO)C2` (stereo not drawn) [Dubinidine], the remaining activity at 3.75 µM worked out at 105% in assay [1] (Well no.=486) and 104% in assay [1] (Well no.=3115). Further, the remaining activity at 1.25 µM in assay [2] (Well no.=486) was 106%; in assay [2] (Well no.=3115), 102%.

Turning to `OC[C@@H](O)[C@H](O)[C@H](O)[C@@H](O)CO` [Dulcite], the remaining activity at 3.75 µM in assay [1] (Well no.=6883) worked out at 94.4%. In addition, the remaining activity at 1.25 µM in assay [2] (Well no.=6883) was determined as 99.2%.

Regarding `C[C@]12C=CC(=O)N[C@@H]1CC[C@@H]1[C@@H]2CC[C@]2(C)[C@@H](C(=O)Nc3cc(C(F)(F)F)ccc3C(F)(F)F)CC[C@@H]12` [Dutasteride], the remaining activity at 3.75 µM in assay [1] (Well no.=5107) amounted to 107%. Besides, the remaining activity at 1.25 µM in assay [2] (Well no.=5107) came out at 106%.

On to `CCCCOc1ccc(C(=O)CCN2CCCCC2)cc1` [Dyclonine (hydrochloride)], for which the remaining activity at 3.75 µM in assay [1] (Well no.=8318) was 94.4%. Further, the remaining activity at 1.25 µM in assay [2] (Well no.=8318) was 95.9%.

As to `CCCCOc1ccc(C(=O)CCN2CCCCC2)cc1` [Dyclonine HCl], the remaining activity at 3.75 µM in assay [1] (Well no.=5050) came to 101%. For the same molecule, the remaining activity at 1.25 µM in assay [2] (Well no.=5050) came out at 103%.

For the molecule `Cn1c(=O)c2c(ncn2CC(O)CO)n(C)c1=O` (stereo not drawn) [Dyphylline], the remaining activity at 3.75 µM in assay [1] (Well no.=8092) came out at 95.3%. Further, the remaining activity at 1.25 µM in assay [2] (Well no.=8092) came to 93.8%.

On to `COc1cc2c3cc1Oc1c(OC)c(OC)cc4c1[C@@H](Cc1ccc(OC(=O)c5ccc([N+](=O)[O-])cc5)c(c1)Oc1ccc(cc1)C[C@@H]3N(C)CC2)N(C)CC4` [E6 Berbamine], for which the remaining activity at 3.75 µM in assay [1] (Well no.=3237) stood at 95%. The remaining activity at 1.25 µM in assay [2] (Well no.=3237) was 97.5%.

Turning to `C[C@H](NC(=O)c1c(C(F)F)nn(C)c1Oc1cccc(C(F)(F)F)c1)c1ccc(C(=O)O)cc1` [E7046], the remaining activity at 3.75 µM in assay [1] (Well no.=8441) amounted to 94.6%. Further, in assay [2] (Well no.=8441), the remaining activity at 1.25 µM worked out at 94.7%.

For `COc1cc2nccc(Oc3ccc(NC(=O)NC4CC4)c(Cl)c3)c2cc1C(N)=O` [E7080], the remaining activity at 3.75 µM in assay [1] (Well no.=2981) came out at 98.1%. The remaining activity at 1.25 µM in assay [2] (Well no.=2981) amounted to 98%.

`NC(N)=NCCC[C@H](NC(=O)c1sccc1NS(=O)(=O)c1cccc2nsnc12)C(=O)O` [EG00229]: the remaining activity at 3.75 µM in assay [1] (Well no.=8174) came to 96.8%. The remaining activity at 1.25 µM in assay [2] (Well no.=8174) came out at 101%.

Take `O=C(Nc1cccc(Nc2cc(Nc3cccc(C(F)(F)F)c3)ncn2)c1)C1CC1` [EGFR Inhibitor]: the remaining activity at 3.75 µM in assay [1] (Well no.=2403) worked out at 103%. Besides, the remaining activity at 1.25 µM in assay [2] (Well no.=2403) was 106%.

Turning to `COc1cc2ncnc(Nc3ccc(OCc4ccccc4)cc3)c2cc1OC` [EGFR/ErbB-2 Inhibitor], the remaining activity at 3.75 µM in assay [1] (Well no.=2373) came out at 97.2%. Also, the remaining activity at 1.25 µM in assay [2] (Well no.=2373) is 95.9%.

On to `CC#CC(=O)Nc1cc2c(Nc3ccc(F)c(Cl)c3)ncnc2cn1` [EGFR/ErbB-2/ErbB-4 Inhibitor], for which, in assay [1] (Well no.=2405), the remaining activity at 3.75 µM came to 105%. In assay [2] (Well no.=2405), the remaining activity at 1.25 µM was found to be 102%.

Consider `O=c1cc(CN2CCOCC2)occ1OCCCCCSc1ccnc2cc(C(F)(F)F)ccc12` [EHT 1864], for which, in assay [1] (Well no.=8435), the remaining activity at 3.75 µM stood at 90.8%. Also, in assay [2] (Well no.=8435), the remaining activity at 1.25 µM amounted to 93.5%.

`CCn1c2ccccc2c2cc(Nc3ccnc(NCCCN4CCOCC4)n3)ccc21` [EHop-016]: the remaining activity at 3.75 µM in assay [1] (Well no.=6234) amounted to 97.9%. For the same molecule, in assay [2] (Well no.=6234), the remaining activity at 1.25 µM came to 98.3%.

Regarding `Cc1[nH]c2ccc(Cl)cc2c1C1=CCNCC1` [EMD386088], the remaining activity at 3.75 µM in assay [1] (Well no.=5430) was 97.4%. In addition, in assay [2] (Well no.=5430), the remaining activity at 1.25 µM turned out to be 95.7%.

Consider `Cc1cc(Nc2cc(N3CCN(C)CC3)nc(/C=C/c3ccccc3)n2)n[nH]1` [ENMD-2076 L-(+)-Tartaric acid], for which the remaining activity at 3.75 µM in assay [1] (Well no.=5012) stood at 89.1%. The remaining activity at 1.25 µM in assay [2] (Well no.=5012) is 101%.

For the molecule `Cc1cc(Nc2cc(N3CCN(C)CC3)nc(/C=C/c3ccccc3)n2)n[nH]1` [ENMD-2076], in assay [1] (Well no.=5093), the remaining activity at 3.75 µM came out at 105%. Besides, the remaining activity at 1.25 µM in assay [2] (Well no.=5093) stood at 102%.

Consider `Cc1ccccc1C(=O)c1ccc(Nc2ccc(Br)cc2N)cc1Cl` [EO 1428 - (2-Methylphenyl)-[4-[(2-amino-4-bromophenyl)amino]-2-chlorophenyl]methanone], for which, in assay [1] (Well no.=2634), the remaining activity at 3.75 µM is 88.7%. Besides, the remaining activity at 1.25 µM in assay [2] (Well no.=2634) is 87.4%.

As for `CC(C)[C@H](NC(=O)OCc1ccccc1)C(=O)N[C@@H](CC(=O)O)C(=O)CF` [EP1013], the remaining activity at 3.75 µM in assay [1] (Well no.=6886) was 96.6%. In assay [2] (Well no.=6886), the remaining activity at 1.25 µM turned out to be 96.4%.

As for `Cc1ccc2c(=O)c3ccccc3n(CCCN)c2c1C` [ER 27319 maleate - 10-(3-Aminopropyl)-3,4-dimethyl-9(10H)-acridinone maleate], the remaining activity at 3.75 µM in assay [1] (Well no.=2536) came to 99.3%. The remaining activity at 1.25 µM in assay [2] (Well no.=2536) amounted to 98.5%.

As to `Nc1[nH]nc2nnc(-c3c(-c4ccccc4)nn4ccccc34)cc12` [ERK Inhibitor II, FR180204], the remaining activity at 3.75 µM in assay [1] (Well no.=2454) came to 103%. In addition, in assay [2] (Well no.=2454), the remaining activity at 1.25 µM came out at 103%.
